How the values were obtained:
[1] = UV/vis absorption in PBS; type: physicochemical; conditions: 100 μM in PBS
[2] = Fluorescence excitation and emission; type: physicochemical

UV/vis λabs [1] [nm] | Fluorescence λem ([2]; 100 nM) [nm] | Fluorescence λex ([2]; 100 nM) [nm] | Fluorescence λem ([2]; concentration not given) [nm] | Fluorescence λex ([2]; concentration not given) [nm] | Compound
437 | 554 | 428 | – | – | N=C(N)c1ccc(CNC(=O)c2nc(N)c(C(=O)NCc3ccc(C(=N)N)cc3)nc2N)cc1 [Example 1, 3,6-diamino-N2,N5-bis(4-carbamimidoylbenzyl)pyrazine-2,5-dicarboxamide]
434 | – | – | 559 | 449 | Nc1nc(C(=O)NCC(O)CO)c(N)nc1C(=O)NCC(O)CO (stereo not drawn) [Example 3, 3,6-diamino-N^2,N^5-bis(2,3-dihydroxypropyl)pyrazine-2,5-dicarboxamide]
432 | – | – | 558 | 432 | Nc1nc(C(=O)N[C@@H](CO)C(=O)O)c(N)nc1C(=O)N[C@@H](CO)C(=O)O [Example 4, 3,6-Diamino-N^2,N^5-bis(serine)-pyrazine-2,5-dicarboxamide]

Source: patent US8313729B2, “Integrated photoactive small molecules and uses thereof” (Medibeacon, LLC, priority 2007, dated 2012)
